# Like-named read-outs stand apart in the source and are kept apart here.
# What was measured:
# Type in all cases: in vivo
# [1] = test system: barnyardgrass (Echinochloa crus-galli); assay: Test D flooded paddy test plant response; settings: Flood (flooded paddy test), visual rating on scale 0 to 100 (0 no effect, 100 complete control), 13 to 15 days
# Description: (§1) Plant species in the flooded paddy test consisted of rice (Oryza sativa), small-flower umbrella sedge (Cyperus difformis), ducksalad (Heteranthera limosa), and bamyardgrass (Echinochloa crus-galli) grown to the 2-leaf stage for testing. At time of treatment, test pots were flooded to 3 cm above the soil surface, treated by application of test compounds directly to the paddy water, and then maintained at that water depth for the duration of the test. Treated plants and controls were maintained in a greenhouse for 13 to 15 days, after which time all species were compared to controls and visually evaluated. Plant response ratings, summarized in Table D, are based on a scale of 0 to 100 where 0 is no effect and 100 is complete control. A dash (-) response means no test result.
# [2] = test system: ducksalad (Heteranthera limosa); assay: Test D flooded paddy test plant response; settings: Flood (flooded paddy test), visual rating on scale 0 to 100 (0 no effect, 100 complete control), 13 to 15 days
# Description: as §1
# [3] = test system: small-flower umbrella sedge (Cyperus difformis); assay: Test D flooded paddy test plant response; settings: Flood (flooded paddy test), visual rating on scale 0 to 100 (0 no effect, 100 complete control), 13 to 15 days
# Description: as §1
# [4] = test system: rice (Oryza sativa); assay: Test D flooded paddy test plant response; settings: Flood (flooded paddy test), visual rating on scale 0 to 100 (0 no effect, 100 complete control), 13 to 15 days
# Description: as §1
# [5] = test system: wheat (Triticum aestivum); assay: Test B pre-/postemergence plant response; settings: for plant injury at 1000 g/ha: Triticum aestivum, 240 h, read-out: Plant response rating, Wheat
# Summary of the method: (§2)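 Evaluation is visual, about 10 days after application, rating injury from 0 (none) to 100 (complete control) relative to untreated controls. Application was a preemergence soil spray on seeded pots or a postemergence spray on one- to two-leaf plants.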
# [6] = test system: pigweed (Amaranthus retroflexus); assay: Test B pre-/postemergence plant response; settings: for pest or weed control at 1000 g/ha: Amaranthus retroflexus, 240 h, read-out: Plant response rating, Pigweed
# Summary of the method: as §2
# [7] = test system: barnyardgrass (Echinochloa crus-galli); assay: Test B pre-/postemergence plant response; settings: for pest or weed control at 1000 g/ha: Echinochloa crus-galli, 240 h, read-out: Plant response rating, Barnyardgrass
# Summary of the method: as §2
# [8] = test system: velvetleaf (Abutilon theophrasti); assay: Test B pre-/postemergence plant response; settings: for pest or weed control at 1000 g/ha: Abutilon theophrasti, 240 h, read-out: Plant response rating, Velvetleaf
# Summary of the method: as §2
# [9] = test system: giant foxtail (Setaria faberii); assay: Test B pre-/postemergence plant response; settings: for pest or weed control at 1000 g/ha: Setaria faberi, 240 h, read-out: Plant response rating, Foxtail, Giant
# Summary of the method: as §2
# [10] = test system: morningglory (Ipomoea spp.); assay: Test B pre-/postemergence plant response; settings: for pest or weed control at 1000 g/ha: Ipomoea, 240 h, read-out: Plant response rating, Morningglory
# Summary of the method: as §2
# [11] = test system: corn (Zea mays); assay: Test B pre-/postemergence plant response; settings: for Corn plant response rating (crop injury, 0 = no effect, 100 = complete kill) at 1000 g/ha: Zea mays, 240 h
# Summary of the method: as §2
# [12] = test system: large (Lg) crabgrass (Digitaria sanguinalis); assay: Test B pre-/postemergence plant response; settings: for pest or weed control at 1000 g/ha: Digitaria sanguinalis, 240 h, read-out: Plant response rating, Crabgrass, Large
# Summary of the method: as §2
# [13] = test system: barnyardgrass (Echinochloa crus-galli); assay: Test C flooded paddy test plant response; settings: Flood, 250 g ai/ha; scale of 0 to 100 where 0 is no effect and 100 is complete control; 13 to 15 days
# Summary of the method: (§3)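 Plants grown to the 2-leaf stage; pots flooded to 3 cm above soil, test compounds applied directly to paddy water, depth maintained throughout. Greenhouse for 13 to 15 days, then visual rating versus controls on a 0–100 scale (0 no effect, 100 complete control).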
# [14] = test system: ducksalad (Heteranthera limosa); assay: Test C flooded paddy test plant response; settings: Flood, 250 g ai/ha; scale of 0 to 100 where 0 is no effect and 100 is complete control; 13 to 15 days
# Summary of the method: as §3
# [15] = test system: small-flower umbrella sedge (Cyperus difformis); assay: Test C flooded paddy test plant response; settings: Flood, 250 g ai/ha; scale of 0 to 100 where 0 is no effect and 100 is complete control; 13 to 15 days
# Summary of the method: as §3
# [16] = test system: rice (Oryza sativa); assay: Test C flooded paddy test plant response; settings: Flood, 250 g ai/ha; scale of 0 to 100 where 0 is no effect and 100 is complete control; 13 to 15 days
# Summary of the method: as §3
# [17] = post-emergence, Postemergence, 1000 g ai/ha, 0 to 100 scale (0 no effect, 100 complete control)
# [18] = pre-emergence, Preemergence, 1000 g ai/ha, 0 to 100 scale (0 no effect, 100 complete control)
# [19] = Postemergence, 1000 g ai/ha, 0 to 100 scale (0 no effect, 100 complete control)
# [20] = Preemergence, 1000 g ai/ha, 0 to 100 scale (0 no effect, 100 complete control)
# [21] = 125 g ai/ha, postemergence, 0 to 100 scale, 0 no effect, 100 complete control
# [22] = 500 g ai/ha, postemergence, 0 to 100 scale, 0 no effect, 100 complete control
# [23] = Preemergence, 125 g ai/ha, 0 to 100 scale (0 no effect, 100 complete control)
# [24] = Preemergence, 500 g ai/ha, 0 to 100 scale where 0 is no effect and 100 is complete control
structure (smiles),measurement,setting,value
"Clc1ccc(-c2ccccc2Oc2ncc(Cl)cn2)nc1 [Compound 1, 5-chloro-2-[2-(5-chloro-2-pyridinyl)phenoxy]pyrimidine]","Plant response rating, Barnyardgrass",[1]; 31 g ai/ha,0
same,"Plant response rating, Barnyardgrass",[1]; 62 g ai/ha,0
same,"Plant response rating, Barnyardgrass",[1]; 125 g ai/ha,0
same,"Plant response rating, Barnyardgrass",[1]; 250 g ai/ha,0
same,"Plant response rating, Ducksalad",[2]; 31 g ai/ha,0
same,"Plant response rating, Ducksalad",[2]; 62 g ai/ha,0
same,"Plant response rating, Ducksalad",[2]; 125 g ai/ha,0
same,"Plant response rating, Ducksalad",[2]; 250 g ai/ha,0
same,"Plant response rating, Sedge, Umbrella",[3]; 31 g ai/ha,0
same,"Plant response rating, Sedge, Umbrella",[3]; 62 g ai/ha,0
same,"Plant response rating, Sedge, Umbrella",[3]; 125 g ai/ha,0
same,"Plant response rating, Sedge, Umbrella",[3]; 250 g ai/ha,0
same,"Plant response rating, Rice",[4]; 31 g ai/ha,0
same,"Plant response rating, Rice",[4]; 62 g ai/ha,0
same,"Plant response rating, Rice",[4]; 125 g ai/ha,0
same,"Plant response rating, Rice",[4]; 250 g ai/ha,0
same,plant injury at 1000 g/ha,[5]; [17],0%
same,plant injury at 1000 g/ha,[5]; [18],0%
same,pest or weed control at 1000 g/ha,[6]; [17],100%
same,pest or weed control at 1000 g/ha,[6]; [18],100%
same,pest or weed control at 1000 g/ha,[7]; [17],70%
same,pest or weed control at 1000 g/ha,[7]; [18],80%
same,pest or weed control at 1000 g/ha,[8]; [17],100%
same,pest or weed control at 1000 g/ha,[8]; [18],80%
same,pest or weed control at 1000 g/ha,[9]; [17],80%
same,pest or weed control at 1000 g/ha,[9]; [18],100%
same,pest or weed control at 1000 g/ha,[10]; [17],60%
same,pest or weed control at 1000 g/ha,[10]; [18],20%
same,"Corn plant response rating (crop injury, 0 = no effect, 100 = complete kill) at 1000 g/ha",[11]; [17],10%
same,"Corn plant response rating (crop injury, 0 = no effect, 100 = complete kill) at 1000 g/ha",[11]; [18],0%
same,pest or weed control at 1000 g/ha,[12]; [17],70%
same,pest or weed control at 1000 g/ha,[12]; [18],100%
FC(F)(F)Oc1cccc(-c2ccccc2Oc2ncc(Cl)cn2)c1 [Compound 40],"Plant response rating, Barnyardgrass",[1]; 31 g ai/ha,0
same,"Plant response rating, Barnyardgrass",[1]; 62 g ai/ha,0
same,"Plant response rating, Barnyardgrass",[1]; 125 g ai/ha,0
same,"Plant response rating, Barnyardgrass",[1]; 250 g ai/ha,0
same,"Plant response rating, Ducksalad",[2]; 31 g ai/ha,0
same,"Plant response rating, Ducksalad",[2]; 62 g ai/ha,0
same,"Plant response rating, Ducksalad",[2]; 125 g ai/ha,20
same,"Plant response rating, Ducksalad",[2]; 250 g ai/ha,40
same,"Plant response rating, Sedge, Umbrella",[3]; 31 g ai/ha,0
same,"Plant response rating, Sedge, Umbrella",[3]; 62 g ai/ha,0
same,"Plant response rating, Sedge, Umbrella",[3]; 125 g ai/ha,30
same,"Plant response rating, Sedge, Umbrella",[3]; 250 g ai/ha,50
same,"Plant response rating, Rice",[4]; 31 g ai/ha,0
same,"Plant response rating, Rice",[4]; 62 g ai/ha,0
same,"Plant response rating, Rice",[4]; 125 g ai/ha,0
same,"Plant response rating, Rice",[4]; 250 g ai/ha,0
same,"Plant response rating, Wheat",[5]; [19],10
same,"Plant response rating, Wheat",[5]; [20],0
same,"Plant response rating, Pigweed",[6]; [19],100
same,"Plant response rating, Pigweed",[6]; [20],100
same,"Plant response rating, Barnyardgrass",[7]; [19],30
same,"Plant response rating, Barnyardgrass",[7]; [20],50
same,"Plant response rating, Velvetleaf",[8]; [19],100
same,"Plant response rating, Velvetleaf",[8]; [20],90
same,"Plant response rating, Foxtail, Giant",[9]; [19],50
same,"Plant response rating, Foxtail, Giant",[9]; [20],100
same,"Plant response rating, Morningglory",[10]; [19],100
same,"Plant response rating, Morningglory",[10]; [20],0
same,"Plant response rating, Corn",[11]; [19],20
same,"Plant response rating, Corn",[11]; [20],0
same,"Plant response rating, Crabgrass, Large",[12]; [19],50
same,"Plant response rating, Crabgrass, Large",[12]; [20],70
N#Cc1cccc(-n2cc(Br)cn2)c1Oc1ncc(Cl)cn1 [Compound 209],Barnyardgrass plant response rating,[13],0
same,Ducksalad plant response rating,[14],0
same,"Sedge, Umbrella plant response rating",[15],0
same,Rice plant response rating,[16],0
same,"Plant response rating, Wheat",[5]; [21],0
same,"Plant response rating, Wheat",[5]; [22],0
same,Wheat plant response rating,[5]; [23],0
same,"Plant response rating, Wheat",[5]; [24],0
same,"Plant response rating, Pigweed",[6]; [21],90
same,"Plant response rating, Pigweed",[6]; [22],100
same,Pigweed plant response rating,[6]; [23],90
same,"Plant response rating, Pigweed",[6]; [24],100
same,"Plant response rating, Barnyardgrass",[7]; [21],0
same,"Plant response rating, Barnyardgrass",[7]; [22],0
same,Barnyardgrass plant response rating,[7]; [23],0
same,"Plant response rating, Barnyardgrass",[7]; [24],10
same,"Plant response rating, Velvetleaf",[8]; [21],30
same,"Plant response rating, Velvetleaf",[8]; [22],30
same,Velvetleaf plant response rating,[8]; [23],0
same,"Plant response rating, Velvetleaf",[8]; [24],0
same,"Plant response rating, Foxtail, Giant",[9]; [21],0
same,"Plant response rating, Foxtail, Giant",[9]; [22],30
same,"Foxtail, Giant plant response rating",[9]; [23],30
same,"Plant response rating, Foxtail, Giant",[9]; [24],100
same,"Plant response rating, Morningglory",[10]; [21],30
same,"Plant response rating, Morningglory",[10]; [22],30
same,Morningglory plant response rating,[10]; [23],0
same,"Plant response rating, Morningglory",[10]; [24],0
same,"Plant response rating, Corn",[11]; [21],0
same,"Plant response rating, Corn",[11]; [22],0
same,Corn plant response rating,[11]; [23],0
same,"Plant response rating, Corn",[11]; [24],0
same,"Plant response rating, Crabgrass, Large",[12]; [21],10
same,"Plant response rating, Crabgrass, Large",[12]; [22],30
same,"Crabgrass, Large plant response rating",[12]; [23],70
same,"Plant response rating, Crabgrass, Large",[12]; [24],100
